Assay results as given in patent US20240300959A1, “BALASUBRAMIDE DERIVATIVE AND USE THEREOF IN PREPARATION OF MEDICINE FOR TREATING ACUTE LUNG INJURY” (Guangdong Pharmaceutical University, priority 2023, published 2024).
Where “and” joins values, the source holds several entries; their conditions need not be identical. Equal values may be shown once. Read-outs that look alike come from different tables or passages of the source.

How the values were obtained:
[1] = test system: TNF-α in RAW264.7 macrophages stimulated by lipopolysaccharide; assay: TNF-α ELISA in cell supernatant of LPS-stimulated RAW264.7 macrophages; format: cell-based, mice
Protocol: RAW264.7 cells were inoculated into a 96-well plate at a density of 1×10^5 per well. When the cell density was 70%-80%, 18 balasubramide derivatives were prepared into 10 mM working solutions with DMSO, respectively, and then used to pretreat mononuclear macrophages RAW264.7 of mice at a final concentration of 10 μM. After 3 h, lipopolysaccharide (LPS, 100 ng/mL) was added into all wells for action for 2 h except for a control group. A supernatant was collected for later use, and the expression level of an inflammatory factor TNF-α in the cell supernatant was detected according to an operation instruction of a commercial ELISA kit.
(§1) RAW264.7 cells were inoculated into a 96-well plate at a density of 1×10^5 per well. When the cell density was 70%-80%, the RAW264.7 cells were pretreated with (+)3C-20 ([…]). After 3 h, lipopolysaccharide (LPS, 100 ng/mL) was added into all wells for action for 2 h except for a control group. The expression level of an inflammatory factor TNF-α in a cell supernatant was detected according to an operation instruction of a commercial ELISA kit, and the cell viability at different administration concentrations of (+)3C-20 was determined according to an operation instruction of a CCK-8 kit.

RAW264.7 cells [2] = assay: Cytotoxicity test, CCK-8 cell viability of RAW264.7 cells (24 h); format: cell-based, mice; conditions: 10 μM, RAW264.7 cell viability
Protocol: RAW264.7 cells were inoculated into a 96-well plate at a density of 1×10^5 per well. When the cell density was 70%-80%, the RAW264.7 cells were pretreated with 10 mM working solutions prepared from 18 balasubramide derivatives at a final concentration of 10 μM for 24 h, and then the cell viability was determined by a CCK-8 method.

RAW264.7 cells [3] = assay: CCK-8 cell viability of RAW264.7 macrophages at different concentrations of (+)3C-20 (LPS experiment); format: cell-based, mice; conditions: RAW264.7 cell viability
Protocol: as §1

[4] = test system: mice with sepsis and lung injury caused by intraperitoneal injection of lipopolysaccharide; assay: Acute lung injury caused by sepsis (intraperitoneal injection of lipopolysaccharide); format: in vivo, ICR mice; conditions: for Content of TNF-α in serum (% of Model) / Area percentage of alveolar cells (%): 6 h after i.p. LPS; for Area percentage of alveolar cells (%): H&E lung sections; for Change multiple of IL-1β / Change multiple of IL-6 / Change multiple of TNF-α / Change multiple of iNOS: lung tissue RT-PCR; for Lung index (%): 6 h after i.p. LPS 10 mg/kg; for Body weight (Day 1) / Body weight (Day 2) / Body weight (Day 3): i.p. LPS sepsis model, in g (unit assumed)
Protocol: Administration and grouping of animals: Male ICR mice were used as experimental animals, which were randomly divided into a control group, a model group, a positive administration group and administration groups according to the body weight. The control group and the model group were administered with a solvent by intraperitoneal injection (the solvent was prepared from DMSO, Kolliphor HS15 and Saline at a ratio of 1:2:7), the positive administration group was administered with 5 mg/kg dexamethasone (DEX) by intraperitoneal injection, and the administration groups were administered with (+)3C-20 at a concentration of 10 mg/kg and 50 mg/kg, respectively, by intraperitoneal injection. The dexamethasone and the (+)3C-20 were dissolved in the above solvent and were clear and transparent. The administration was continued for 3 days. 2 h after the last administration, all the other groups were administered with LPS (10 mg/kg) by intraperitoneal injection while the control group was administered with an equal volume of normal saline by intraperitoneal injection. Body weight and lung index: The mice were weighed and randomly divided on day 1 and continuously weighed for 3 days before administration, and growth conditions of the mice were measured by statistics. The mice were administered with LPS by intraperitoneal injection 2 h after administration on day 3, then the mice were dissected 6 h later, and the lungs were taken, weighed and recorded.
On day 3, 6 h after the intraperitoneal injection of LPS, whole blood was collected from eye sockets and then subjected to centrifugation to prepare serum, and the serum was frozen at −80° C. The lungs were subjected to perfusion with PBS and fixed by paraformaldehyde, and the fixed lungs were stained with hematoxylin-eosin (H&E) after dehydration, paraffin embedding and sectioning. The serum was tested by a commercial TNF-α ELISA kit. Histopathological results and data statistics are shown in FIG. 7-1, FIG. 7-2 and Table 7.
A small amount of frozen lung tissues were taken and fully ground, and the expression of inflammation related genes in the lung tissues was detected by an RT-PCR technology according to an operation instruction of an RNA extraction kit.

[5] = test system: inflammation genes in RAW264.7 macrophages stimulated by lipopolysaccharide; assay: qPCR expression level of inflammation genes in LPS-stimulated RAW264.7 macrophages; format: cell-based, mice; conditions: RAW264.7, LPS
Protocol: RAW264.7 cells were inoculated into a 24-well plate at a density of 5×10^5 per well. When the cell density was 70%-80%, the RAW264.7 cells were pretreated with (+)3C-20 (5 μM, 10 μM, 20 μM). After 3 h, lipopolysaccharide (LPS, 100 ng/mL) was added into all wells for action for 2 h except for a control group. A supernatant was discarded, and the cells at the bottom of the plate were fully lysed with Trizol (Nanjing Vazyme, R401-01). RNA was extracted according to an RNA extraction instruction, and subjected to reverse transcription to obtain cDNA, followed by qPCR according to an amplification method at 95° C. for a total of 5 min (at 95° C. for 10 s, and at 60° C. for 30 s) in 40 cycles, and finally statistical calculation was performed by ΔCt.

O=C(CCc1ccc(C(F)(F)F)cc1)O[C@@H]1C(=O)NCCc2c([nH]c3ccccc23)[C@H]1c1ccc(C(F)(F)F)cc1 [(+)-3C-20]
anti-inflammatory activity (inhibition of expression of TNF-α in macrophages), in words ([1]; 10 μM, RAW264.7, LPS): better anti-inflammatory activity than other derivatives | activity at 0.1 µM ([1]; Mus musculus, RAW264.7, 0.1 μM, RAW264.7, LPS 100 ng/mL, read-out: Percentage of TNF-α in a model group (%)): 99.83 ± 0.89% | activity at 0.5 µM ([1]; Mus musculus, RAW264.7, 0.5 μM, RAW264.7, LPS 100 ng/mL, read-out: Percentage of TNF-α in a model group (%)): 98.1 ± 1.56% | activity at 1 µM ([1]; Mus musculus, RAW264.7, 1 μM, RAW264.7, LPS 100 ng/mL, read-out: Percentage of TNF-α in a model group (%)): 94.38 ± 0.45% | activity at 2 µM ([1]; Mus musculus, RAW264.7, 2 μM, RAW264.7, LPS 100 ng/mL, read-out: Percentage of TNF-α in a model group (%)): 88.6% | activity at 5 µM ([1]; Mus musculus, RAW264.7, 5 μM, RAW264.7, LPS 100 ng/mL, read-out: Percentage of TNF-α in a model group (%)): 83.7% | activity at 10 µM ([1]; Mus musculus, RAW264.7, 10 μM, RAW264.7, LPS 100 ng/mL (Table 3), read-out: Percentage of TNF-α in a model group (%)): 51.2% | activity at 20 µM ([1]; Mus musculus, RAW264.7, 20 μM, RAW264.7, LPS 100 ng/mL, read-out: Percentage of TNF-α in a model group (%)): 39.4% | activity at 10 µM ([1]; Mus musculus, RAW264.7, 2 h, 10 μM, 3 h pretreatment, LPS 100 ng/mL 2 h, RAW264.7, read-out: Percentage of TNF-α in a model group (%)): 39.9 ± 2.88% | effective dose for inhibiting the expression of TNF-α in the macrophages ([1]; RAW264.7, LPS): 2 to 20 µM | Percentage of CCK-8 in a model group (%) (RAW264.7 cells [2]): 103.97 ± 3.88% and 95.04 ± 3.22% | Percentage of CCK-8 in a model group (%) (RAW264.7 cells [3]; 0.1 μM): 108.6 ± 1.49% | Percentage of CCK-8 in a model group (%) (RAW264.7 cells [3]; 0.5 μM): 106.11 ± 2.44% | Percentage of CCK-8 in a model group (%) (RAW264.7 cells [3]; 1 μM): 106.01 ± 1.75% | Percentage of CCK-8 in a model group (%) (RAW264.7 cells [3]; 2 μM): 106.41 ± 3.04% | Percentage of CCK-8 in a model group (%) (RAW264.7 cells [3]; 5 μM): 105.55 ± 1.06% | Percentage of CCK-8 in a model group (%) (RAW264.7 cells [3]; 10 μM): 96.64 ± 1.45% | Percentage of CCK-8 in a model group (%) (RAW264.7 cells [3]; 20 μM): 95.83 ± 2.29% | Content of TNF-α in serum (% of Model) ([4]; 10 mg/kg i.p.): 78.38 ± 11.32 ^ % of Model | Area percentage of alveolar cells (%) ([4]; 10 mg/kg i.p.): 38.68 ± 3.73% | Change multiple of IL-1β ([4]; 10 mg/kg i.p., i.p. LPS): 9.68 ± 0.67 | Change multiple of IL-6 ([4]; 10 mg/kg i.p., i.p. LPS): 47.5 ± 7.38 | Change multiple of TNF-α ([4]; 10 mg/kg i.p., i.p. LPS): 10.58 ± 1.72 | Change multiple of iNOS ([4]; 10 mg/kg i.p., i.p. LPS): 12.44 ± 1.28 ^ | Lung index (%) ([4]; 10 mg/kg intraperitoneal 3 days): 0.714 ± 0.02 ^ % | Body weight (Day 1) ([4]; 10 mg/kg intraperitoneal): 25.42 ± 1.1 | Body weight (Day 2) ([4]; 10 mg/kg intraperitoneal): 25.46 ± 1.2 | Body weight (Day 3) ([4]; 10 mg/kg intraperitoneal): 25.77 ± 1.03 | Content of TNF-α in serum (% of Model) ([4]; 50 mg/kg i.p.): 55.06 ± 5.96 % of Model | Area percentage of alveolar cells (%) ([4]; 50 mg/kg i.p.): 30.43 ± 2.41 % | Change multiple of IL-1β ([4]; 50 mg/kg i.p., i.p. LPS): 10.13 ± 1.72 | Change multiple of IL-6 ([4]; 50 mg/kg i.p., i.p. LPS): 13.73 ± 1.56 | Change multiple of TNF-α ([4]; 50 mg/kg i.p., i.p. LPS): 5.55 ± 0.86 | Change multiple of iNOS ([4]; 50 mg/kg i.p., i.p. LPS): 5.42 ± 1.02 | Lung index (%) ([4]; 50 mg/kg intraperitoneal 3 days): 0.672 ± 0.014 % | Body weight (Day 1) ([4]; 50 mg/kg intraperitoneal): 25.34 ± 0.57 | Body weight (Day 2) ([4]; 50 mg/kg intraperitoneal): 26.16 ± 1.22 | Body weight (Day 3) ([4]; 50 mg/kg intraperitoneal): 27.01 ± 1.08 | pathological lung injury compared with the model group, in words ([4]; 50 mg/kg, i.p. LPS): obviously relieving pathological lung injury | Change multiple of COX-2 ([5]; 5 μM): 4.20 ± 0.16 | Change multiple of IL-1β ([5]; 5 μM): 62.02 ± 7.52 | Change multiple of IL-6 ([5]; 5 μM): 23.17 ± 0.9 | Change multiple of TNF-α ([5]; 5 μM): 11.03 ± 0.87 | Change multiple of COX-2 ([5]; 10 μM): 3.95 ± 0.9 | Change multiple of IL-1β ([5]; 10 μM): 28.51 ± 0.4 | Change multiple of IL-6 ([5]; 10 μM): 16.09 ± 0.24 | Change multiple of TNF-α ([5]; 10 μM): 6.00 ± 1.96 | Change multiple of COX-2 ([5]; 20 μM): 3.49 ± 0.0^8 | Change multiple of IL-1β ([5]; 20 μM): 12.58 ± 1.72 | Change multiple of IL-6 ([5]; 20 μM): 6.53 ± 0.31 | Change multiple of TNF-α ([5]; 20 μM): 4.49 ± 0.81 | effective dose for anti-inflammatory activity (inhibition of expression of inflammation genes) [5]: 5 μM, 10 μM or 20 μM
